Test results published in US8273712B2, “Promoting wound healing by administering a prostaglandin E and granulocyte-macrophage colony stimulating factor” (Medical Research Council, priority 2005, dated 2012).

Columns and labels:
[1] = tested on: Male Sprague Dawley rats, 2 cm circular dorsal wounds; test: Rat model of wound healing; type: in vivo; details: for Wound area relative to control (significance, in words): day 3 post surgery; for Wound colour observations relative to control: days 3-5; for Consistent brown wound colour scores: days 9 and 10, red indicates a less healed wound than brown
Procedure: Male Sprague Dawley rats weighing between 250-300 grams were used as a wound healing model to assess the effects of PGE and GMCSF. 6 rats per treatment group were analysed to provide adequate data for statistical comparisons between control and treated groups. A total of 24 animals were used (4 groups of 6 rats). The four groups were control, 16,16-dimethyl PGE, GMCSF, and 16,16-dimethyl PGE+GMCSF groups. […] Two wounds were created on each animal, resulting in an “n” of 12 wounds per group.
Following acclimatisation (5-6 days), the rats were given a subcutaneous injection of Glycopyrolate (0.01 mg/kg at 0.02 mg/mL), dose volume 0.5 mL/kg, and anesthetised with an intraperitoneal injection of a Ketamine (40 mg/kg)/Xylazine (5 mg/kg) cocktail at 45 mg/mL (ket) and 5 mg/mL (xy), dose volume 0.88 mL/kg. Adequate depth of anesthesia was assessed by a toe pinch prior to beginning surgery, such that if any movement was noted, the animals were given more anaesthesia. […] Once anesthesia was accomplished, a 6×8 cm area was shaved in the dorsal area. Following shaving, a depilatory agent (Nair) was applied to the shaved area, and allowed to remain on the skin for approximately 5 minutes. After this time, the Nair was gently scraped from the skin with a blunt spatula and any residue was removed by rinsing the skin with deionised, distilled water and wiping with gauze sponges. The shaved area was then surgically prepared with chlorhexidine and alcohol scrub.
The rat was then placed on its abdomen and positioned in such a way that the limbs were relaxed and the spine was straight. […] The inside margins of the T were traced with a Sharpie pen, such that as upside-down “L” appeared on the right side of the rat and an upside-down and backward “L” appeared on the left side of the animal. These designated the cranial border of each wound, approximately 3 cm caudal to the scapular angles, and the medial border of each wound, approximately 0.25 cm from the midline.
To make the wound template, the rim of a cap from a Corning 15 ml conical tube was placed on the area and traced using a sterile surgical marker creating a 2 cm circle within one of the upside-down L's described above. An initial incision was made with a #10 scalpel blade at the medial edge of each circle. The incision was made through the panniculus carnosus into the areolar layer of the subcutaneous loose connective tissue. The excision was continued around the entire perimeter of the circle using forceps and Metzenbaum curved scissors while taking care to avoid damaging the deep fescial layers. The skin was removed to leave a circular wound. Where necessary, hemostasis was achieved by even compression with a sterile gauze pad.
The test agent or vehicle control, was administered at three different sites under the wound bed. Group assignments and dose levels for each treatment were as detailed in Table 8. Dose levels were based on body weight.
The wounds were not covered with any type of dressing. Approximately 30 minutes after recovery (determined by sternal recumbency and normal movement) the animals were given a subcutaneous injection of Buprenorphine (0.1 mg/kg) and transferred to individual cages with elevated stainless steel floors. Additional Buprenorphine was given every 6-8 hours as needed, then for the following 72 hours, 0.05 mg/kg was administered every 6-12 hours as needed.
Animals were anesthetised with isoflurane on days 3, 7, and 10 following surgery and the wounds were measured by caliper for width and length. The width and length measurements were then multiplied to calculate wound area and the mean wound area and standard error of the mean for each treatment determined. To test for any significant difference in wound healing relative to control treatment, a two-way analysis of variance (ANOVA) test was performed on the mean wound areas. In addition to wound area, wound healing was evaluated daily by observing wound colour. […]

[2] = biological target: T1, 15-hydroxy prostaglandin dehydrogenase (Homo sapiens, UniProt P15428); details: cited from earlier work
T1 sequence (P15428 1-266): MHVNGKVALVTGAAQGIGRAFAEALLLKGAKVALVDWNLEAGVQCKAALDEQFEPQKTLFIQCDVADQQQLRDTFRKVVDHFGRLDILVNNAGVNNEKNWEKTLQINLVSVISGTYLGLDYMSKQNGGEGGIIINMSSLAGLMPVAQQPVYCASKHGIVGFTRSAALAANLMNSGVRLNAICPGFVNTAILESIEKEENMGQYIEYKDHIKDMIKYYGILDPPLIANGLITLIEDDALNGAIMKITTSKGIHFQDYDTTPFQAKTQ

[3] = tested on: PGE receptors; details: cited from earlier work
[4] = tested on: ML1 cells; test: ELISA for measuring cytokine release; type: cell-based, human; details: monocyte
Procedure: Medium was removed from cells and analysed by ELISA. A monoclonal capture antibody was coated onto 96 well plates and culture medium was added each well. A standard curve was created with recombinant protein. After incubation and washing, a biotin-labelled monoclonal antibody was added. Following further incubation and washing, peroxidase-labelled streptavidin was added. After washing, a tetramethyl benzidine substrate was added and colour developed in proportion to the concentration of the cytokine in the original sample/standard. Colour was read using a plate photometer (Labsystems, Multiskan).
Paired antibodies and recombinant standards for CD14, CXCL8 (IL-8), and CCL2 (MCP-1) were obtained from R&D Systems Ltd, Abingdon UK and antibodies for IL-10 were obtained from Pharmingen (BD Bioscience, Erembodegem, Belgium), as shown below in Table 1.

[5] = Day 3 post surgery, PGE analog 400 μg/kg and/or GMCSF 25 μg/kg per site under the wound bed
[6] = Day 7 post surgery, PGE analog 400 μg/kg and/or GMCSF 25 μg/kg per site
[7] = Day 10 post surgery, PGE analog 400 μg/kg and/or GMCSF 25 μg/kg per site

Row | Compound | Difference in wound area relative to control ([1]; Day 3) | Mean wound area [1, 5] | Difference in wound area relative to control ([1]; Day 7) | Mean wound area [1, 6] | Difference in wound area relative to control ([1]; Day 10) | Mean wound area [1, 7] | Wound area relative to control (significance, in words) [1] | Wound colour observations relative to control [1] | Consistent brown wound colour scores [1] | Resistance to the main catabolic enzyme 15-hydroxy prostaglandin dehydrogenase [2] | Activation of PGE receptors [3] | IL-8 release induced by PGE and GMCSF [4]
1 | 16,16-dimethyl PGE [PGE analog] | −52.21 | 387.5 mm^2 | −11.29 | 255.4 mm^2 | −9.185 | 135.1 mm^2 | No significant difference | more consistent brown scores relative to the control treatment | 2 | resistant | activate all known PGE receptors | 
2 | COc1ccc(C2CNC(=O)C2)cc1OC1CCCC1 (stereo not drawn) [rolipram] |  |  |  |  |  |  |  |  |  |  |  | enhance IL-8 release
3 | GMCSF | −15.50 | 424.2 mm^2 | −18.63 | 248.0 mm^2 | 8.761 | 153.0 mm^2 | No significant difference | more consistent brown scores relative to the control treatment | 3 |  |  | 
